This is an account of results in patent US20250161238A1, “NMDAR Antagonists Prevent Ageing and Aging-Associated Conditions and Diseases Through Increasing 20S Proteasome Activity” (priority 2022, published 2025).

Each structure is given as a SMILES string.

In data set [1] the test system is p21-GFP fusion protein. The data set is described as follows: p21-GFP fusion protein amount in cells. The class given is cell-based, human. To be noted: Hep3B expressing p21-GFP.
Data set [2] deals with C. elegans. The data set is described as follows: C. elegans movements (non-moving, swimming). As to conditions: 18th day. Format: in vivo. As for the experimental part: Therefore, the movements of the C. elegans grown at 20° C. on standard nematode growth medium(NGM) plates shaked at constant speed at 200 rpm were recorded for 5 minutes on the 18th day. All C. elegans in plate well were individually followed and counted by three different eyes for 5 minutes. […] One of the basic movement of C. elegans in liquid is crawling while the other is swimming. Previously described that swimming is more energetically demanding for C. elegans than the crawling motion. In addition it was stated that having the ability to swim is related to locomotory fatigue, muscle mitochondrial oxidation, a transcriptional oxidative stress response, and changes in carbohydrate and fat metabolism. It was also known that the swimming ability of C. elegans is also related to pharyngeal, intestinal, neuronal functions and strong muscle into old age.
To sterilize the animals 300 μL of a 6 mM Fluorodeoxyuridine (FUDR) stock solution was added to 10 ml medium. During the monitoring of their life span, the worms were kept by shaking at a constant speed of 200 rpm. Locomotor activities of the worms were recorded and available.

The conditions of data set [3]: human subjects; cited from earlier work.

For the compound `CNC1(c2ccccc2Cl)CCCCC1=O` (stereo not drawn) [ketamin, 2-(2-chlorophenyl)-2-(methylamino)-cyclohexanone], the “p21-GFP fusion protein / GFP amount” value in data set [1] is on record as “decrease”. Regarding `CC12CC3CC(C)(C1)CC(N)(C3)C2` [memantine, 3,5-dimethyladamantan-1-amine], the “number of C. elegans that can swim compared to without treatment” value in data set [2] is 2,4 times. Further, the “CSF concentrations, lower” value in data set [3] is 30-40%.
